Where two headings read alike, the source gives them in different places. Blank lines part the entries; values can stand above or below the molecule they belong to.
Columns and labels:
murine HTR1B receptor = murine HTR1B receptor (Mus musculus, UniProt P28334); assay: [3H]-Kyn binding competition, Htr1b-overexpressing HEK293T membranes; conditions: SB9 at ∼90 μmol/L, equal to the concentration administered in vivo
MLL/AF9 AML cells = assay type: in vivo, mouse
[1] = test system: Cyclins D1, D2, and E1 (targets of serotonin-HTR1B signaling); assay: Bone; assay type: in vivo, mouse; conditions: SB9-treated mice
mouse HTR1B = mouse HTR1B (Mus musculus, UniProt P28334); conditions: Fig. S1M
[2] = test system: patient-derived AML cells; assay: PDX in NSG mice, combination therapy; assay type: in vivo; conditions: day 22 after initiating therapy
[3] = test system: Kyn/Trp ratio (indicator of IDO1 activity); assay: Serum Kyn and Trp levels; assay type: in vivo, mouse
[4] = Systemic toxicity of epacadostat diet in WT mice; assay type: in vivo, mouse; conditions: epacadostat ad libitum diet 0.8 g/kg
[5] = test system: patient-derived AML cells; assay: Patient-derived AML xenograft; assay type: in vivo, NSGS mice; conditions: epacadostat 300 mg/kg daily gavage
[6] = test system: Saa3 expression in mouse primary osteoblasts; assay: Saa3 mRNA in primary differentiated mouse calvaria osteoblasts; assay type: cell-based; conditions: 25 nmol/L, 24 hours
Ido1 = assay: CRISPR/Cas9-mediated Ido1 targeting of primary murine MLL/AF9 cells; assay type: cell-based, mouse; conditions: Ido1 exon 3
5-HT1B receptor (HTR1B) = 5-HT1B receptor (HTR1B) (Homo sapiens, UniProt P28222); assay: GloSensor Gi/o-mediated cAMP inhibition assay in transfected HEK293T cells; assay type: cell-based
[7] = test system: leukemic blasts (hCD45+ hCD33+); assay: Kyn injection in low AML burden PDX mice; assay type: in vivo, NSGS mice; conditions: Kyn 20mg/kg for 1 week
[8] = test system: IDO1 expression in OCI-AML3 cells; assay: IDO1 mRNA in human AML/MDS cell lines exposed to recombinant proteins; assay type: cell-based
[9] = test system: Ido1 expression in WEHI-3B cells; assay: Ido1 mRNA in WEHI-3B cells exposed to recombinant SAA; assay type: cell-based, mouse; conditions: exposed overnight
THP-1 and OCI-AML3 cells = assay: Proliferation of human AML cell lines exposed to SAA1; assay type: cell-based; conditions: SAA1 1 μg/mL, 24–72 hours, versus vehicle
[10] = test system: lineage-depleted AML and MDS BM-MNCs; assay type: cell-based, human; conditions: SAA1 5 μg/mL, 24 hours
[11] = test system: total human BM cells isolated from PDX mice; assay: Ex vivo human BM cells isolated from PDX mice; assay type: cell-based; conditions: SAA1 1 μg/mL, 24 hours
[12] = test system: leukemic blasts (hCD45+CD33+); assay type: in vivo, NSGS mice
[13] = test system: AHR target genes (CYP1A1, CYP1A2); assay: AHR target gene mRNA in human AML and MDS cells exposed to SAA1; assay type: cell-based; conditions: SAA1 1µg/ml o/n
WEHI-3B cells = assay: Proliferation of mouse AML cell line exposed to SAA3; assay type: cell-based; conditions: SAA3 1 μg/mL, 24–72 hours, versus vehicle
[14] = SAA1 i.v., 2- and 8-day treatments

5-HT1B receptor (HTR1B), sequence (P28222 whole entry): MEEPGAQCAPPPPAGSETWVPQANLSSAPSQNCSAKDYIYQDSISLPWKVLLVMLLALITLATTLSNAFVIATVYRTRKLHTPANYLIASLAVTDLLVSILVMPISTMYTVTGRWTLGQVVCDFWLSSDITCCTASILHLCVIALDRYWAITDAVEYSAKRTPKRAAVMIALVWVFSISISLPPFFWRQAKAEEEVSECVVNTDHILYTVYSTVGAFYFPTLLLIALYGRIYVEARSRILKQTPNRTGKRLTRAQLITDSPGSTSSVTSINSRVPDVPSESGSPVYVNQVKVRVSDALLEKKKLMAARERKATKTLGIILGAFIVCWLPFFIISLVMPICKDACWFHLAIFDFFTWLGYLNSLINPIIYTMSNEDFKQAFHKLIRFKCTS
mouse HTR1B, sequence (P28334 whole entry): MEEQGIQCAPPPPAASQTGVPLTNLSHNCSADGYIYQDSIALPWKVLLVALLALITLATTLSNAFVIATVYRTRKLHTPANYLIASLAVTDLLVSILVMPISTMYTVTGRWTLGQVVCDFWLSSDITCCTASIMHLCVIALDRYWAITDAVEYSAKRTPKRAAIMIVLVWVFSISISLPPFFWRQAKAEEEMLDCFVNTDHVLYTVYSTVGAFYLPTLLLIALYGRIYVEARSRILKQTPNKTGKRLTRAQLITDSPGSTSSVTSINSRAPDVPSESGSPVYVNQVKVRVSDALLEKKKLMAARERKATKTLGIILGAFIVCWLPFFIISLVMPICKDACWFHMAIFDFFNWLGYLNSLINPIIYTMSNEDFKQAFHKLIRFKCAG
murine HTR1B receptor, sequence (P28334 whole entry): as above

Molecule: Cc1nc(-c2ccc(-c3ccc(C(=O)N4CCc5cc6c(cc54)C4(CCN(C)CC4)CO6)cc3)c(C)c2)no1 [SB224289, 1′-methyl-5-[[2′-methyl-4“-(5-methyl-1,2,4-oxadiazol-3-yl)biphenyl-4-yl]carbonyl]-2,3,6,7-tetrahydro-spiro[furo[2,3-f]indole-3,4-”piperidine]]
effect on Kyn binding to the murine HTR1B receptor (murine HTR1B receptor): no effect
protection of MLL/AF9-injected mice (MLL/AF9 AML cells; SB9 5 mg/kg i.p. daily from 1 week after leukemia injection): only partially protected
survival (MLL/AF9 AML cells; SB9 5 mg/kg i.p. daily versus vehicle): significant increase in survival
bone expression of Cyclins D1, D2, and E1 [1]: upregulated
5-HT binding to HTR1B at the administered dose (mouse HTR1B): effective in abolishing 5-HT binding to HTR1B

Molecule: Nc1ccn([C@@H]2O[C@H](CO)[C@@H](O)[C@@H]2O)c(=O)n1 [Ara-C, 1-β-D-arabinofuranosylcytosine]
effect on leukemic burden in SP relative to BM [2]: more sustained in the SP than in BM

Molecule: NS(=O)(=O)NCCNc1nonc1C(=NO)Nc1ccc(F)c(Br)c1 [epacadostat]
leukemia progression (MLL/AF9 AML cells; epacadostat diet 0.8 g/kg): tendency toward a slower leukemia progression
survival (MLL/AF9 AML cells; epacadostat diet 0.8 g/kg): slight—yet significant—increase in survival
AML burden (MLL/AF9 AML cells; epacadostat diet 1.6 g/kg): significant delay in AML burden
survival (MLL/AF9 AML cells; epacadostat diet 1.6 g/kg, compared with the lower dose): significantly prolonged survival
reduction in serum Kyn levels ([3]; MLL/AF9 mice, epacadostat diet 1.6 g/kg): 35%
reduction in basal (no leukemia) circulating Kyn/Trp levels ([3]; WT mice, epacadostat ad libitum diet 0.8 g/kg): 54%
systemic Kyn/Trp levels in MLL/AF9 leukemic mice ([3]; epacadostat diet 0.8 g/kg): did not reduce the 1.5-fold increase in systemic Kyn/Trp levels
systemic toxicity [4]: did not show any obvious systemic toxicity
G0–G1 and G2–M populations of leukemic blasts [5]: remained unchanged
leukemic blast apoptosis [5]: increased leukemic blast apoptosis
proliferation of leukemic blasts (hCD45+CD33+), in vivo cell cycle [5]: less proliferative
reduction in Kyn/Trp levels in blood ([5]; 12-day regimen): ~20%
reduction in AML BM burden ([5]; versus vehicle): ~20%
effect on leukemic burden in SP relative to BM [2]: more pronounced effect in the SP

Molecule: NCCc1c[nH]c2ccc(O)cc12 [5-HT, 5-hydroxytryptamine, reference compound]
Saa3 expression in mouse osteoblasts (Htr1b+/+) [6]: had no effect

Molecule: sgRNA#196: chemically modified mouse sgRNA targeting Ido1 exon 3: CUGCCCACACUGAGCACGGA (chemically modified, pattern not given here)
deletion efficiency (Ido1): ~40%

mode of action on Gi/o-mediated cAMP production through HTR1B (5-HT1B receptor (HTR1B)): partial agonist
EC50 (5-HT1B receptor (HTR1B); EC50 (nmol/L), cAMP Gi agonist, human HTR1B): ~772 nM
Molecule: Nc1ccccc1C(=O)CC(N)C(=O)O (stereo not drawn) [Kyn, kynurenine]
Saa3 expression in Htr1b−/− primary osteoblasts [6]: failed to upregulate Saa3 expression
Saa3 expression in mouse osteoblasts (Htr1b+/+) [6]: potently upregulated Saa3 expression
AML burden in BM and SP [7]: AML burden increased in BM and SP
proliferative capacity of the leukemic blasts [7]: increases
serum SAA3 ([7]; low AML burden PDX mice): increases serum SAA3

B1: SAA1: recombinant human acute-phase protein serum amyloid A1 (PeproTech) (protein, UniProt P0DJI8 19-122, looked up)
Serum amyloid A-1 protein: RSFFSFLGEAFDGARDMWRAYSDMREANYIGSDKYFHARGNYDAAKRGPGGAWAAEVITDARENIQRFFGHGAEDSLADQAANEWGRSGKDPNHFRPAGLPEKY
IDO1 upregulation in other cell lines ([8]; Fig. S4O, exposed o/n to SAA1): observed across several human AML cell lines as well as the MDS-L cell line
IDO1 expression in OCI-AML3 cells ([8]; overnight, 50 ng/mL recombinant protein): the only osteoblast-secreted molecule able to upregulate IDO1 expression
Ido1 expression in WEHI-3B cells [9]: able to upregulate Ido1 expression in WEHI-3B cells with a magnitude similar to SAA3
proliferation of human AML cell lines (THP-1 and OCI-AML3 cells): increased proliferation
IDO1 mRNA levels in patient-derived BM-MNCs [10]: increased
proliferation of lineage-depleted AML and MDS BM-MNCs from patient aspirates [10]: promoted proliferation
IDO1 expression in PDX-isolated human cells [11]: upregulated only in response to SAA1 in the PDX AML-isolated human cells
proliferation of human cells from CD34+ healthy injected mice [11]: unresponsive
proliferation of patient-derived cells from AML-injected mice ([11]; versus vehicle): high proliferative activity
proliferative rate of leukemic blasts (EdU+ cells, S-phase) ([12]; SAA1 100 μg/kg i.v., 2- and 8-day treatments): maintained and prominent increase in the proliferative rate of leukemic blasts
G0–G1 cells of leukemic blasts [12, 14]: decrease
G2–M phase of leukemic blasts [12, 14]: unvarying
increase in AML burden in the BM ([12]; SAA1 i.v., completion of the 8-day treatment): 1.5 fold
AHR target gene expression in human AML and MDS cell lines [13]: upregulated most of the main AHR target genes

B2: SAA3: recombinant mouse SAA3 (Cusabio), murine ortholog of SAA1 (protein, UniProt P04918 19-122, looked up)
Serum amyloid A-3 protein: QRWVQFMKEAGQGSRDMWRAYSDMKKANWKNSDKYFHARGNYDAARRGPGGAWAAKVISDAREAVQKFTGHGAEDSRADQFANEWGRSGKDPNHFRPAGLPKRY
Ido1 expression in WEHI-3B cells [9]: upregulated Ido1 expression
proliferation of mouse AML cell line (WEHI-3B cells): increased proliferation
